Literature values as cited in US20040067918A1, “Combination of an aldosterone receptor antagonist and nicotinic acid or a nicotinic acid derivative” (priority 2002, published 2004).

Details: severe heart failure patients on standard therapy, relative to placebo-treated subjects

CC(=O)SC1CC2=CC(=O)CCC2(C)C2CCC3(C)C(CCC34CCC(=O)O4)C12 (stereo not drawn) [spironolactone, 17-hydroxy-7α-mercapto-3-oxo-17α-pregn-4-ene-21-carboxylic acid γ-lactone acetate]
incidence of hospitalization: statistically significant reduction
mortality: statistically significant reduction
